The target in this experiment is Substance-P receptor (Homo sapiens, UniProt P25103). Kind of experiment: Tested against cloned human NK1 receptor by displacement of 125 I -labeled substance P expressed in CHO cells. The format is cell-based.

Structures are written as SMILES. Bounds are passed on as bounds.

Chain of Substance-P receptor (P25103 whole entry): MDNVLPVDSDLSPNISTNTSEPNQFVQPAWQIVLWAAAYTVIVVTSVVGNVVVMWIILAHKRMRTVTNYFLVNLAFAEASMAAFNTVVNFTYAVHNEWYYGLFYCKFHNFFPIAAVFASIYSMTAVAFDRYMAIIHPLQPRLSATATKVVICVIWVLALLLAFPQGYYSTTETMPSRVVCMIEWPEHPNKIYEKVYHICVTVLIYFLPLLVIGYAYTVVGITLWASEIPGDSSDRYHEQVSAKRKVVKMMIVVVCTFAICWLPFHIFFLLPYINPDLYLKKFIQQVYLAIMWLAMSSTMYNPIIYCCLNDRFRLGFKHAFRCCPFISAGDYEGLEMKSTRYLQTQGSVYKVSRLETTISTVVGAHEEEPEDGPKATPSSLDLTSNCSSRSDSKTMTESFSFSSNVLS

Turning to `Cc1cc(C)cc(COC(=O)[C@H](Cc2c[nH]c3ccccc23)N(C)C)c1`, the IC50 came to 553 nM.
On to `COc1ccccc1COC(=O)[C@H](Cc1c[nH]c2ccccc12)NC(=O)OC(C)(C)C`, for which the IC50 worked out at 280 nM.
The value for `N[C@@H](Cc1c[nH]c2ccccc12)C(=O)OCc1ccccc1` was > 10000 nM.
In turn, `Cc1cc(C)cc(COC(=O)[C@@H](N)Cc2c[nH]c3ccccc23)c1` registered an IC50 of 1530 nM. In other words, the single-digit micromolar range.
The value for `Cc1cc(C)cc(COC(=O)[C@H](Cc2c[nH]c3ccccc23)[N+](C)(C)C)c1` was 125 nM; that for `CC(C)(C)OC(=O)N[C@@H](Cc1c[nH]c2ccccc12)C(=O)OCc1ccccc1` was 413 nM.
`CC(=O)N[C@@H](Cc1c[nH]c2ccccc12)C(=O)OCc1cc(C)cc(C)c1` [L-708568] came in with an IC50 of 67 nM.

For the origin of these results see ChEMBL document CHEMBL1126935, “N-acyl-L-tryptophan benzyl esters: potent substance P receptor antagonists” (J Med Chem, 1993).
